In patent US12398155B2, “Thienopyridinone compounds” (Janssen Pharmaceutica NV, priority 2019, dated 2025):
Where a name gives a salt, the structure may show the parent alone.

What was measured:
[1] = molecular target: T1, human FGFR3 V555M enzyme (cytoplasmic domain carrying V555M mutation) (Homo sapiens, UniProt P22607, V555M); assay: FGFR3 V555M mobility shift assay (enzymatic assay); format: biochemical; conditions: 30 μM ATP, 45 minutes at 30° C.; read-out: FGFR3 V555M Caliper
T1 construct: cytoplasmic domain carrying V555M mutation, from Cama Biosciences; purchased Cama Biosciences (so in the source)
T1 sequence (P22607 397-806 V555M limits assumed): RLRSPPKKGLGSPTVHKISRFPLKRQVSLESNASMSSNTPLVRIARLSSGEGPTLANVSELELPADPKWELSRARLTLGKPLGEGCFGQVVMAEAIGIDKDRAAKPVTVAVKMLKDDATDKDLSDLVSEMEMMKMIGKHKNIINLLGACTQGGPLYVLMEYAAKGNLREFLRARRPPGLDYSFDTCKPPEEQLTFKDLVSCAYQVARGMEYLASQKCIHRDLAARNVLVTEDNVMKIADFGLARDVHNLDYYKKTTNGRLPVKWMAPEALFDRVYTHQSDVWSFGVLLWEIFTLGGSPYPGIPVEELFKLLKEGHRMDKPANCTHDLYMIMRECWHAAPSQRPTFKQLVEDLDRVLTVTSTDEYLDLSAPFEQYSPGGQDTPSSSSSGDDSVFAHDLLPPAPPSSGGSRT
Protocol: FGFR3 V555M Mobility Shift Assay (Enzymatic Assay)
(§1) In a final reaction volume of 25 μL, 0.04 ng/μL human FGFR3 V555M enzyme (cytoplasmic domain carrying V555M mutation, from Cama Biosciences) was incubated with 30 μM ATP, 1 μM FL-peptide 30 substrate and 250 nL of testing compound (1% DMSO final) in assay buffer (100 mM HEPES pH 7.4, 10 mM MgCl2, 0.003% Brij35, 1 mM DTT). After incubation for 45 minutes at 30° C. the reaction was stopped with 10 μL of 0.5M EDTA pH 8.0, and then 25 μL of reaction mixture was transferred to reading plate and measured on Caliper EZ reader II. The substrate-product conversion rate was used as raw data for normalization and concentration-response curve (10 dose points with 4× serial dilution, starting with 10 μM) was plotted using Prism to calculate IC50 (M), pIC50 (−log IC50) and HillSlope value.

[2] = molecular target: T2, human FGFR3 wild type enzyme (cytoplasmic domain) (Homo sapiens, UniProt P22607); assay: FGFR3 wild type mobility shift assay (enzymatic assay); format: biochemical; conditions: 75 μM ATP, 50 minutes at 30° C.; read-out: FGFR3 wild type Caliper
T2 construct: human FGFR3 wild type enzyme (cytoplasmic domain, from Cama Biosciences); purchased Cama Biosciences (so in the source)
T2 sequence (P22607 397-806 limits assumed): as the sequence (P22607 397-806 V555M limits assumed) above, with M159V counted along it
Protocol: FGFR3 Wild Type Mobility Shift Assay (Enzymatic Assay)
as §1, with “FGFR3 wild type” for “FGFR3 V555M”, “(cytoplasmic domain,” for “(cytoplasmic domain carrying V555M mutation,”, “with 75” for “with 30”, “for 50” for “for 45”

[3] = tested on: NIH/3T3 cells transfected with control vector; assay: NIH/3T3 mock cell proliferation assay (counter assay, general toxicity); format: cell-based; conditions: Mus musculus, NIH3T3; 72-hr incubation, CellTiter Glo; read-out: NIH/3T3 MOCK CTG
Protocol: NIH/3T3 Mock Cell Proliferation Assay
(§2) In day 1, 90 μL of cell suspension (NIH/3T3 cells transfected with the same control vector as in the above two proliferation assays) (total 30,000 cells per well in growth medium (DMEM containing 1% Glutamax, 10% FBS and 1% Pen/Strep)) was seeded in a 96-well plate and then incubated overnight at 37° C. and 5% CO2. In day 2, 10 μL of growth medium containing 10-fold stock solution of testing compound was added into cell cultures (9 dose points with 3× serial dilution, starting with 30 μM, 0.3% DMSO final). After 72-hr incubation at 37° C. and 5% CO2, in day 5 a volume of 50 μL CellTiter Glo (CTG) reagent was added into cell-containing 96-well plate and the plate was incubated at room temperature for 10 minutes before RLUs (relative light unit) were measured on a microplate reader with luminescence detection module. The RLU value was normalized to survival % and concentration-response curve was plotted using Prism to calculate IC50 (M), pIC50 (−log IC50) and HillSlope value.

[4] = molecular target: T3, NIH/3T3 cells overexpressing FGFR3 WT-TACC3 fusion protein (Homo sapiens, UniProt P22607); assay: NIH/3T3 FGFR3 WT-TACC3 cell proliferation assay; format: cell-based; conditions: 72-hr incubation, CellTiter Glo; read-out: NIH/3T3 FGFR3 WT-TACC3 CTG
T3 construct: NIH/3T3 FGFR3 WT-TACC3 CTG; other: 72-hr incubation, CellTiter Glo; fused on or other part: C-terminal part of TACC3 (coiled-coil) fused behind the FGFR3 kinase domain; Q9Y6A5 (Transforming acidic coiled-coil-containing protein 3)
T3 sequence (P22607 whole entry, change not shown, the tested form may be a part): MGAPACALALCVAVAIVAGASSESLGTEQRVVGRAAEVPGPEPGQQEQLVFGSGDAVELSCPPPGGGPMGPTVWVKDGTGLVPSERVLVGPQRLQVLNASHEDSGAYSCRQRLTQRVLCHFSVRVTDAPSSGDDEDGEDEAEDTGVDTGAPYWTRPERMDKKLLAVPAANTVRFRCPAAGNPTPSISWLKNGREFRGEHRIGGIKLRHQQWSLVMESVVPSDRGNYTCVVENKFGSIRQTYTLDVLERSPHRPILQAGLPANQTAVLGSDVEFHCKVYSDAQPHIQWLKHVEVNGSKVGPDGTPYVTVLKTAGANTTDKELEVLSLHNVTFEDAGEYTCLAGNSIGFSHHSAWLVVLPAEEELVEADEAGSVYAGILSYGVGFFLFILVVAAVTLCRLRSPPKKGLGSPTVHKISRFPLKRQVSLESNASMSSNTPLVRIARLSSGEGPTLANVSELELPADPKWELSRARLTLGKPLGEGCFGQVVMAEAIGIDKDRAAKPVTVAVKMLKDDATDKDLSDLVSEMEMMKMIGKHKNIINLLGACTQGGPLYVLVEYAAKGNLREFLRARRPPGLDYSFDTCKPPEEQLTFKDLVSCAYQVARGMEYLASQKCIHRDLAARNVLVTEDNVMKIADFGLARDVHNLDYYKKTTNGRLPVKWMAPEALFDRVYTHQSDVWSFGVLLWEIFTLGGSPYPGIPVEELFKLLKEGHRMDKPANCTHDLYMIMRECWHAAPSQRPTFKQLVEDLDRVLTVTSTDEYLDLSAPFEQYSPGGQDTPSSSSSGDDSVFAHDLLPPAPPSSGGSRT
Protocol: NIH/3T3 FGFR3 WT-TACC3 Cell Proliferation Assay
as §2, with “cells overexpressing FGFR3 WT-TACC3 fusion protein)” for “cells transfected with the same control vector as in the above two proliferation assays)”, “with 4×” for “with 3×”, “with 10” for “with 30”, “μM, 0.1%” for “μM, 0.3%”

[5] = molecular target: T4, NIH/3T3 cells overexpressing FGFR3 V555M-TACC3 fusion protein (Homo sapiens, UniProt P22607, V555M, cells depend on it); assay: NIH/3T3 FGFR3 V555M-TACC3 cell proliferation assay; format: cell-based; conditions: 72-hr incubation, CellTiter Glo; read-out: NIH/3T3 FGFR3 V555M-TACC3 CTG
T4 construct: NIH/3T3 FGFR3 V555M-TACC3 CTG; other: 72-hr incubation, CellTiter Glo; fused on or other part: C-terminal part of TACC3 (coiled-coil) fused behind the FGFR3 kinase domain; Q9Y6A5 (Transforming acidic coiled-coil-containing protein 3)
T4 sequence (P22607 whole entry V555M, the tested form may be a part): as the sequence (P22607 whole entry, change not shown, the tested form may be a part) above, with V555M counted along it
Protocol: NIH/3T3 FGFR3 V555M-TACC3 Cell Proliferation Assay
as §2, with “cells overexpressing FGFR3 V555M-TACC3 fusion protein)” for “cells transfected with the same control vector as in the above two proliferation assays)”, “with 4×” for “with 3×”, “with 10” for “with 30”, “μM, 0.1%” for “μM, 0.3%”

| Structure (SMILES) | IC50 [1] [nM] | IC50 [2] [nM] | GI50 [4] [nM] | GI50 [5] [nM] | IC50 [3] [nM] |
| --- | --- | --- | --- | --- | --- |
| COCC(Nc1c(-c2nc3cnc(N4C[C@@H](C)O[C@@H](C)C4)cc3[nH]2)c(=O)[nH]c2ccsc12)c1ncccn1 (single isomer, unassigned) [Compound 8, (R*)-6-(6-(cis-2,6-dimethylmorpholino)-1H-imidazo[4,5-c]pyridin-2-yl)-7-((2-methoxy-1-(pyrimidin-2-yl)ethyl)amino)thieno[3,2-b]pyridin-5(4H)-one] | 9.42 | 28.6 | – | – | – |
| CC(C)[C@H](Nc1c(-c2nc3cnc(N4CCN(C)CC4)cc3[nH]2)c(=O)[nH]c2ccsc12)c1ncccn1 (single isomer, unassigned) [Compound 12, (S*)-7-((2-methyl-1-(pyrimidin-2-yl)propyl)amino)-6-(6-(4-methylpiperazin-1-yl)-1H-imidazo[4,5-c]pyridin-2-yl)thieno[3,2-b]pyridin-5(4H)-one 0.6 formate] | 0.33 | 0.24 | 3.82 | 5.02 | 482 |
| COCC(Nc1c(-c2nc3cnc(N4C[C@@H](C)O[C@@H](C)C4)cc3[nH]2)c(=O)[nH]c2ccsc12)c1ncccn1 (single isomer, unassigned) [Compound 7, (S*)-6-(6-(cis-2,6-dimethylmorpholino)-1H-imidazo[4,5-c]pyridin-2-yl)-7-((2-methoxy-1-(pyrimidin-2-yl)ethyl)amino)thieno[3,2-b]pyridin-5(4H)-one] | 2.34 | 35.5 | 486 | 284 | 3050 |
| C[C@@H](Nc1c(-c2nc3cnc(N4CCOCC4)cc3[nH]2)c(=O)[nH]c2ccsc12)c1ncccn1 [Compound 3, (R)-6-(6-Morpholino-1H-imidazo[4,5-c]pyridin-2-yl)-7-((1-(pyrimidin-2-yl)ethyl)amino)-thieno[3,2-b]pyridin-5(4H)-one] | 2.74 | 21.2 | – | – | – |
| COC[C@H](Nc1c(-c2nc3ccc(N4C[C@@H](C)O[C@@H](C)C4)nc3[nH]2)c(=O)[nH]c2ccsc12)c1ncccn1 (single isomer, unassigned) [Compound 11, (R*)-6-(5-(cis-2,6-dimethylmorpholino)-3H-imidazo[4,5-b]pyridin-2-yl)-7-(((R*)-2-methoxy-1-(pyrimidin-2-yl)ethyl)amino)thieno[3,2-b]pyridin-5(4H)-one] | 0.93 | 8.73 | 101 | 91.1 | 3200 |

Second part, led by results:

| IC50 [1] [nM] | IC50 [2] [nM] | GI50 [4] [nM] | GI50 [5] [nM] | Structure (SMILES) | IC50 [3] [nM] |
| --- | --- | --- | --- | --- | --- |
| 119 | 290 | – | – | COC[C@@H](Nc1c(-c2nc3ccc(N4C[C@@H](C)O[C@@H](C)C4)nc3[nH]2)c(=O)[nH]c2ccsc12)c1ncccn1 (single isomer, unassigned) [Compound 10, (S*)-6-(5-(cis-2,6-dimethylmorpholino)-3H-imidazo[4,5-b]pyridin-2-yl)-7-(((S*)-2-methoxy-1-(pyrimidin-2-yl)ethyl)amino)thieno[3,2-b]pyridin-5(4H)-one] | – |
| 0.13 | 0.14 | 2.1 | 4.64 | C[C@H](Nc1c(-c2nc3cnc(N4CCN(C)CC4)cc3[nH]2)c(=O)[nH]c2ccsc12)c1ncccn1 [Compound 5, (S)-6-(6-(4-methylpiperazin-1-yl)-1H-imidazo[4,5-c]pyridin-2-yl)-7-((1-(pyrimidin-2-yl)-ethyl)amino)thieno[3,2-b]pyridin-5(4H)-one] | 571 |
